According to ChEMBL document CHEMBL1126719, “The solution conformation of (D)Phe-Pro-containing peptides: implications on the activity of Ac-(D)Phe-Pro-boroArg-OH, a potent thrombin inhibitor” (J Med Chem, 1993):
pKi: −log10 of the molar value.

What follows are compounds tested against Prothrombin (Homo sapiens, UniProt P00734) (assay: Inhibition constant for binding with thrombin was determined).
Compound `CC(C)(C)OC(=O)N[C@H](Cc1ccccc1)C(=O)NCC(=O)NC(CCCN=C(N)N)B(O)O` (stereo not given in full) has a pKi of 9.40. `CC(C)(C)OC(=O)N[C@H](Cc1ccccc1)C(=O)N1CCC[C@H]1C(=O)NC(CCCN=C(N)N)B(O)O` (stereo not given in full) showed a pKi of 11.40. `CC(=O)NCC(=O)NC(CCCN=C(N)N)B(O)O` (stereo not given) gave a pKi of 7.59. `CC(=O)N[C@H](Cc1ccccc1)C(=O)NCC(=O)NC(CCCN=C(N)N)B(O)O` (stereo not given in full) showed a pKi of 8.37. Work on `CC(=O)N1CCC[C@H]1C(=O)NC(CCCN=C(N)N)B(O)O` (stereo not given in full) yielded a pKi of 8.48.
